Measured values reported in article PMC6977399 (Clinical Pharmacology and Therapeutics, 2019).
Read-outs that look alike come from different tables or passages of the source.

How the values were obtained:
[1] = both, human, plasma, oral, 2 mg
CYP3A [2] = test system: CYP3A
[3] = cited from earlier work
CYP3A [4] = details: in the presence of fluconazole and voriconazole; cited from earlier work
[5] = Literature estimates of intestinal availability; design: species or system human; details: translated from FaFg 0.28
[6] = Clinical DDI study part 2: effect of fenebrutinib on PK of rosuvastatin; details: both, human, plasma, oral, 20 mg
BCRP and OATP1B = test: as above; details: both, human, plasma, oral
OATP1B and BCRP = details: clinical DDI study; cited from earlier work
[7] = MDZ coadministered with fenebrutinib 200 mg b.i.d. vs MDZ alone
[8] = both, human, plasma, oral, 2 mg

SMILES: Cc1ncc2n1-c1ccc(Cl)cc1C(c1ccccc1F)=NC2 [MDZ, midazolam]
- Cmax [1]: 8.54 ng/mL
- half-life [1]: 6.23 h
- AUC0−t, fold higher with fenebrutinib vs alone (CYP3A [2]; [7]): ~ 1.99 fold
- Cmax, fold higher with fenebrutinib vs alone (CYP3A [2]; [7]): ~ 1.74 fold
- half-life (CYP3A [2]; both, human, plasma, oral): 6.68 h
- AUC(0-inf) (CYP3A [2]; [8]): 20.5 ng·h/mL
- AUC(0-t) (CYP3A [2]; [8]): 19.2 ng·h/mL
- intestinal availability (FaFg) [3]: 48%

SMILES: OCc1ncc2n1-c1ccc(Cl)cc1C(c1ccccc1F)=NC2 [1′‐hydroxymidazolam]
- exposure increase in the presence of other CYP3A inhibitors (CYP3A [4]): ~ 1.5 fold

SMILES: CC(C)c1nc(N(C)S(C)(=O)=O)nc(-c2ccc(F)cc2)c1/C=C/[C@@H](O)C[C@@H](O)CC(=O)O [Rosuvastatin, rosuvastatin]
- maximum AUC increase if FaFg increased to 1 with intestinal BCRP inhibition [5]: 3.6 fold
- AUC(0-inf) [6]: 93 ng·h/mL
- Cmax [6]: 9.08 ng/mL
- half-life [6]: 19.9 h
- half-life (BCRP and OATP1B): 18.2 h
- AUC(0-t) (BCRP and OATP1B; 20 mg): 91 ng·h/mL
- FaFg ([3]; estimated, ref Tanaka et al.23): 0.28
- exposure increase in the presence of eltrombopag (OATP1B and BCRP): 55%
